ChEMBL document CHEMBL1649315, “Extended-spectrum cephalosporinase in Acinetobacter baumannii” (Antimicrob Agents Chemother, 2010)
≈ marks a conversion by molar mass, not a printed value.

How the values were obtained:
Acinetobacter baumannii [1] = test: Ratio of Kcat to Km for Acinetobacter baumannii ADC-33 beta-lactamase to Kcat to Km for Acinetobacter baumannii ADC-11 beta-lactamase
Acinetobacter baumannii [2] = test: Antimicrobial activity against Acinetobacter baumannii CIP70.10 by Etest method; type: functional
Escherichia coli [3] = test: Antimicrobial activity against Escherichia coli TOP10 harboring pADC-11 plasmid by Etest method; type: functional
Escherichia coli [4] = test: Antimicrobial activity against Escherichia coli TOP10 harboring pADC-11 plasmid with entire blaAmpC gene by Etest method; type: functional
Escherichia coli [5] = test: Antimicrobial activity against Escherichia coli TOP10 harboring pADC-33 plasmid carrying entire blaAmpC gene with alanine residue deletion at 215 position and R210P substitution by Etest method; type: functional
Escherichia coli [6] = test: Antimicrobial activity against Escherichia coli TOP10 harboring pADC-11 plasmid carrying entire blaAmpC gene with alanine residue insertion at 215 position by Etest method; type: functional
Acinetobacter baumannii [7] = test: Antimicrobial activity against Acinetobacter baumannii AYE expressing VEB-1 gene by Etest method; type: functional
Escherichia coli [8] = test: Antimicrobial activity against Escherichia coli TOP10 harboring pADC-33 plasmid with entire blaAmpC gene by Etest method; type: functional
Escherichia coli [9] = test: Antimicrobial activity against Escherichia coli TOP10 harboring pADC-33 plasmid by Etest method; type: functional
Escherichia coli [10] = test: Antimicrobial activity against Escherichia coli TOP10 harboring pADC-33 plasmid with entire blaAmpC gene with alanine residue deletion at 215 position by Etest method; type: functional
Escherichia coli [11] = test: Antimicrobial activity against Escherichia coli TOP10 harboring pTOPO plasmid by Etest method; type: functional
Acinetobacter baumannii [12] = test: Antimicrobial activity against Acinetobacter baumannii KI by Etest method; type: functional
Beta-lactamase ADC-33 = Beta-lactamase ADC-33 (Acinetobacter baumannii, UniProt B2ZTR6); test: Activity of Acinetobacter baumannii ADC-33 beta-lactamase
ADC-11 = ADC-11 (Acinetobacter baumannii, UniProt D6NSM8); test: Activity of Acinetobacter baumannii ADC-11 beta-lactamase
Escherichia coli [13] = test: Antimicrobial activity against Escherichia coli TOP10 harboring pADC-50 plasmid by Etest method; type: functional
Acinetobacter baumannii [14] = test: Ratio of Kcat to Ki for Acinetobacter baumannii ADC-33 beta-lactamase to Kcat to Ki for Acinetobacter baumannii ADC-11 beta-lactamase
Escherichia coli [15] = test: Antimicrobial activity against Escherichia coli TOP10 harboring pADC-11 plasmid carrying entire blaAmpC gene with alanine residue insertion at 215 position and R210P substitution by Etest method; type: functional
Escherichia coli [16] = test: Antimicrobial activity against Escherichia coli TOP10 harboring pTOPO plasmid by Etest method in presence of clavulanic acid; type: functional
Escherichia coli [17] = test: Antimicrobial activity against Escherichia coli TOP10 harboring pADC-33 plasmid carrying entire blaAmpC gene with alanine residue deletion at 215 position by Etest method in presence of clavulanic acid; type: functional
Acinetobacter baumannii [18] = test: Antimicrobial activity against Acinetobacter baumannii AYE expressing VEB-1 gene by Etest method in presence of clavulanic acid; type: functional
Escherichia coli [19] = test: Antimicrobial activity against Escherichia coli TOP10 harboring pADC-50 plasmid by Etest method in presence of clavulanic acid; type: functional
Escherichia coli [20] = test: Antimicrobial activity against Escherichia coli TOP10 harboring pADC-33 plasmid by Etest method in presence of clavulanic acid; type: functional
Escherichia coli [21] = test: Antimicrobial activity against Escherichia coli TOP10 harboring pADC-11 plasmid carrying entire blaAmpC gene by Etest method in presence of clavulanic acid; type: functional
Escherichia coli [22] = test: Antimicrobial activity against Escherichia coli TOP10 harboring pADC-11 plasmid carrying entire blaAmpC gene with alanine residue deletion at 215 position and R210P substitution by Etest method in presence of clavulanic acid; type: functional
Escherichia coli [23] = test: Antimicrobial activity against Escherichia coli TOP10 harboring pADC-33 plasmid carrying entire blaAmpC gene by Etest method in presence of clavulanic acid; type: functional
Escherichia coli [24] = test: Antimicrobial activity against Escherichia coli TOP10 harboring pADC-11 plasmid carrying entire blaAmpC gene with alanine residue insertion at 215 position by Etest method in presence of clavulanic acid; type: functional
Escherichia coli [25] = test: Antimicrobial activity against Escherichia coli TOP10 harboring pADC-33 plasmid carrying entire blaAmpC gene with alanine residue deletion at 215 position and R210P substitution by Etest method in presence of clavulanic acid; type: functional
Acinetobacter baumannii [26] = test: Antimicrobial activity against Acinetobacter baumannii KI by Etest method in presence of clavulanic acid; type: functional
Acinetobacter baumannii [27] = test: Antimicrobial activity against Acinetobacter baumannii CIP70.10 by Etest method in presence of clavulanic acid; type: functional
Escherichia coli [28] = test: Antimicrobial activity against Escherichia coli TOP10 harboring pADC-11 plasmid by Etest method in presence of clavulanic acid; type: functional

O=C(Cc1cccs1)N[C@@H]1C(=O)N2C(C(=O)[O-])=C(C[n+]3ccccc3)CS[C@H]12
kcat/Km (Acinetobacter baumannii [1]): 800000 M⁻¹ s⁻¹

C[C@@H](O)[C@H]1C(=O)N2C(C(=O)O)=C(SCCNC=N)C[C@H]12 [IMIPENEM ANHYDROUS]
MIC (Acinetobacter baumannii [2]): 0.25 µg/mL (≈ 0.835 µM) | MIC (Escherichia coli [3]): 0.19 µg/mL (≈ 0.635 µM) | MIC (Escherichia coli [4]): 0.38 µg/mL (≈ 1.27 µM) | MIC (Escherichia coli [5]): 0.25 µg/mL (≈ 0.835 µM) | kcat/Km (Acinetobacter baumannii [1]): 800000 M⁻¹ s⁻¹ | MIC (Escherichia coli [6]): 0.38 µg/mL (≈ 1.27 µM) | MIC (Acinetobacter baumannii [7]): 1 µg/mL (≈ 3.34 µM) | MIC (Escherichia coli [8]): 0.5 µg/mL (≈ 1.67 µM) | MIC (Escherichia coli [9]): 0.25 µg/mL (≈ 0.835 µM) | MIC (Escherichia coli [10]): 0.5 µg/mL (≈ 1.67 µM) | MIC (Escherichia coli [11]): 0.125 µg/mL (≈ 0.418 µM) | MIC (Acinetobacter baumannii [12]): 2 µg/mL (≈ 6.68 µM)

CO/N=C(\C(=O)N[C@@H]1C(=O)N2C(C(=O)O)=C(COC(C)=O)CS[C@H]12)c1csc(N)n1 [CEFOTAXIME]
MIC (Acinetobacter baumannii [2]): 8 µg/mL (≈ 17.6 µM) | Ki (Beta-lactamase ADC-33): 500 nM | MIC (Escherichia coli [3]): 0.5 µg/mL (≈ 1.1 µM) | MIC (Escherichia coli [4]): 8 µg/mL (≈ 17.6 µM) | MIC (Escherichia coli [5]): 8 µg/mL (≈ 17.6 µM) | MIC (Escherichia coli [6]): 256 µg/mL (≈ 562 µM) | Ki (ADC-11): 2500 nM | MIC (Escherichia coli [13]): 0.5 µg/mL (≈ 1.1 µM) | kcat/Km (Acinetobacter baumannii [14]): 2e+07 M⁻¹ s⁻¹ | MIC (Acinetobacter baumannii [7]): > 256 µg/mL | MIC (Escherichia coli [8]): > 256 µg/mL | MIC (Escherichia coli [9]): 128 µg/mL (≈ 281 µM) | MIC (Escherichia coli [15]): > 256 µg/mL | MIC (Escherichia coli [10]): 16 µg/mL (≈ 35.1 µM) | MIC (Escherichia coli [11]): 0.047 µg/mL (≈ 0.103 µM) | MIC (Acinetobacter baumannii [12]): > 256 µg/mL

CO[C@@]1(NC(=O)Cc2cccs2)C(=O)N2C(C(=O)O)=C(COC(N)=O)CS[C@@H]21 [CEFOXITIN]
Ki (Beta-lactamase ADC-33): 100 nM | Ki (ADC-11): 500 nM | kcat/Km (Acinetobacter baumannii [14]): 1e+06 M⁻¹ s⁻¹

CC1(C)S[C@@H]2[C@H](NC(=O)[C@H](C(=O)O)c3ccsc3)C(=O)N2[C@H]1C(=O)O [TICARCILLIN]
MIC (Acinetobacter baumannii [2]): 8 µg/mL (≈ 20.8 µM) | MIC (Escherichia coli [16]): 2 µg/mL | MIC (Escherichia coli [3]): 8 µg/mL (≈ 20.8 µM) | MIC (Escherichia coli [4]): 256 µg/mL (≈ 666 µM) | MIC (Escherichia coli [5]): 128 µg/mL (≈ 333 µM) | MIC (Escherichia coli [17]): 128 µg/mL | MIC (Acinetobacter baumannii [18]): 128 µg/mL | MIC (Escherichia coli [19]): 8 µg/mL | MIC (Escherichia coli [20]): 64 µg/mL | MIC (Escherichia coli [6]): > 256 µg/mL | MIC (Escherichia coli [13]): 8 µg/mL (≈ 20.8 µM) | MIC (Escherichia coli [21]): 256 µg/mL | MIC (Acinetobacter baumannii [7]): > 256 µg/mL | MIC (Escherichia coli [8]): > 256 µg/mL | MIC (Escherichia coli [22]): > 256 µg/mL | MIC (Escherichia coli [9]): 64 µg/mL (≈ 166 µM) | MIC (Escherichia coli [15]): > 256 µg/mL | MIC (Escherichia coli [23]): > 256 µg/mL | MIC (Escherichia coli [24]): > 256 µg/mL | MIC (Escherichia coli [10]): 128 µg/mL (≈ 333 µM) | MIC (Escherichia coli [11]): 2 µg/mL (≈ 5.2 µM) | MIC (Escherichia coli [25]): 128 µg/mL | MIC (Acinetobacter baumannii [26]): 64 µg/mL | MIC (Acinetobacter baumannii [12]): > 256 µg/mL | MIC (Acinetobacter baumannii [27]): 8 µg/mL | MIC (Escherichia coli [28]): 8 µg/mL

CC1(C)S[C@@H]2[C@H](NC(=O)Cc3ccccc3)C(=O)N2[C@H]1C(=O)O
kcat/Km (Acinetobacter baumannii [1]): 1.3e+06 M⁻¹ s⁻¹

CC1(C)S[C@@H]2[C@H](NC(=O)[C@H](N)c3ccc(O)cc3)C(=O)N2[C@H]1C(=O)O [AMOXICILLIN]
MIC (Acinetobacter baumannii [2]): 32 µg/mL (≈ 87.6 µM) | MIC (Escherichia coli [16]): 2 µg/mL | MIC (Escherichia coli [3]): > 256 µg/mL | MIC (Escherichia coli [4]): > 256 µg/mL | MIC (Escherichia coli [5]): > 256 µg/mL | MIC (Escherichia coli [17]): > 256 µg/mL | MIC (Acinetobacter baumannii [18]): 128 µg/mL | MIC (Escherichia coli [19]): 256 µg/mL | MIC (Escherichia coli [20]): > 256 µg/mL | MIC (Escherichia coli [6]): > 256 µg/mL | MIC (Escherichia coli [13]): 256 µg/mL (≈ 701 µM) | MIC (Escherichia coli [21]): > 256 µg/mL | MIC (Acinetobacter baumannii [7]): > 256 µg/mL | MIC (Escherichia coli [8]): > 256 µg/mL | MIC (Escherichia coli [22]): 256 µg/mL | MIC (Escherichia coli [9]): > 256 µg/mL | MIC (Escherichia coli [15]): > 256 µg/mL | MIC (Escherichia coli [23]): > 256 µg/mL | MIC (Escherichia coli [24]): > 256 µg/mL | MIC (Escherichia coli [10]): > 256 µg/mL | MIC (Escherichia coli [11]): 2 µg/mL (≈ 5.47 µM) | MIC (Escherichia coli [25]): 256 µg/mL | MIC (Acinetobacter baumannii [26]): 64 µg/mL | MIC (Acinetobacter baumannii [12]): > 256 µg/mL | MIC (Acinetobacter baumannii [27]): 16 µg/mL | MIC (Escherichia coli [28]): 256 µg/mL

CC(C)(O/N=C(\C(=O)N[C@@H]1C(=O)N2C(C(=O)[O-])=C(C[n+]3ccccc3)CS[C@H]12)c1csc(N)n1)C(=O)O [CEFTAZIDIME]
MIC (Acinetobacter baumannii [2]): 2 µg/mL (≈ 3.66 µM) | MIC (Escherichia coli [3]): 0.5 µg/mL (≈ 0.915 µM) | MIC (Escherichia coli [4]): 8 µg/mL (≈ 14.6 µM) | MIC (Escherichia coli [5]): 8 µg/mL (≈ 14.6 µM) | kcat/Km (Acinetobacter baumannii [1]): 1.5e+08 M⁻¹ s⁻¹ | MIC (Escherichia coli [6]): > 256 µg/mL | MIC (Escherichia coli [13]): 0.5 µg/mL (≈ 0.915 µM) | MIC (Acinetobacter baumannii [7]): > 256 µg/mL | MIC (Escherichia coli [8]): > 256 µg/mL | MIC (Escherichia coli [9]): > 256 µg/mL | MIC (Escherichia coli [15]): > 256 µg/mL | MIC (Escherichia coli [10]): 16 µg/mL (≈ 29.3 µM) | MIC (Escherichia coli [11]): 0.125 µg/mL (≈ 0.229 µM) | MIC (Acinetobacter baumannii [12]): > 256 µg/mL
